Experiment [1] concerns the target Tyrosine-protein kinase ABL1 (Homo sapiens, UniProt P00519). Briefly: Inhibition of ABL1 (unknown origin).
Experiment [2] deals with Vascular endothelial growth factor receptor 1 (Homo sapiens, UniProt P17948). Briefly: Inhibition of VEGFR1 (unknown origin).
Chain of Vascular endothelial growth factor receptor 1 (P17948 whole entry): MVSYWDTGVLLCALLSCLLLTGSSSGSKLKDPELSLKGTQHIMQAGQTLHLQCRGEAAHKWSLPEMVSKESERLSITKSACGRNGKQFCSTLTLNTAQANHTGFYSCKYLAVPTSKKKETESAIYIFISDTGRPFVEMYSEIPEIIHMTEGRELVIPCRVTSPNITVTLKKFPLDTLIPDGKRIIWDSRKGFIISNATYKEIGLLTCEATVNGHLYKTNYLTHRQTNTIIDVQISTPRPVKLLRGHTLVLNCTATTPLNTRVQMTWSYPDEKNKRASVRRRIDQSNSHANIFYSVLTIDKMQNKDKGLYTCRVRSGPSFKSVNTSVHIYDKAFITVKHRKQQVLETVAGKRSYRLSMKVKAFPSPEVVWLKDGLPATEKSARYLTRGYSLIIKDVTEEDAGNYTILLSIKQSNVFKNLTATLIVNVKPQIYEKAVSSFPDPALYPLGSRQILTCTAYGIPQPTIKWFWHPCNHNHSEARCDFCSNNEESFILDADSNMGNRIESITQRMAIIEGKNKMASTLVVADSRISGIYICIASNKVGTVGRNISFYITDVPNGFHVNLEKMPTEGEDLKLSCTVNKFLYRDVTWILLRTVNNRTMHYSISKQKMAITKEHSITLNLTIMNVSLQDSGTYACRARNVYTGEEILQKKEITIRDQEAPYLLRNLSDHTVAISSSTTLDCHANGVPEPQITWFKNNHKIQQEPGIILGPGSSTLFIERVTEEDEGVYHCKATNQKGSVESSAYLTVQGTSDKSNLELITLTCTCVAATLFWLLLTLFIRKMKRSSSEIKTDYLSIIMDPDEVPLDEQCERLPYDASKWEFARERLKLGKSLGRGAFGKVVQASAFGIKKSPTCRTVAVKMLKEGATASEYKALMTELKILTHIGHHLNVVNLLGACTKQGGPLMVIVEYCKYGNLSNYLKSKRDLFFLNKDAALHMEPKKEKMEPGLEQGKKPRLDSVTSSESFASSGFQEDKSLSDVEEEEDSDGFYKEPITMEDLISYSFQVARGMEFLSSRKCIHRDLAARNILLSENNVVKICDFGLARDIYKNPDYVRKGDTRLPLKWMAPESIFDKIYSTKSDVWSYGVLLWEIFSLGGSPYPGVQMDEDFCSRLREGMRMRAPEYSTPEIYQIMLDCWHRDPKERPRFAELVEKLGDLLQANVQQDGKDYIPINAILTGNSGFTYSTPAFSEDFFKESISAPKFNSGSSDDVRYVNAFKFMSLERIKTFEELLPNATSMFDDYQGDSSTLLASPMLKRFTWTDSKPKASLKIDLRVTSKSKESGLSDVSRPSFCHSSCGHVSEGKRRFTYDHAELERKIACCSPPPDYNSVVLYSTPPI

Chain of Tyrosine-protein kinase ABL1 (P00519 whole entry): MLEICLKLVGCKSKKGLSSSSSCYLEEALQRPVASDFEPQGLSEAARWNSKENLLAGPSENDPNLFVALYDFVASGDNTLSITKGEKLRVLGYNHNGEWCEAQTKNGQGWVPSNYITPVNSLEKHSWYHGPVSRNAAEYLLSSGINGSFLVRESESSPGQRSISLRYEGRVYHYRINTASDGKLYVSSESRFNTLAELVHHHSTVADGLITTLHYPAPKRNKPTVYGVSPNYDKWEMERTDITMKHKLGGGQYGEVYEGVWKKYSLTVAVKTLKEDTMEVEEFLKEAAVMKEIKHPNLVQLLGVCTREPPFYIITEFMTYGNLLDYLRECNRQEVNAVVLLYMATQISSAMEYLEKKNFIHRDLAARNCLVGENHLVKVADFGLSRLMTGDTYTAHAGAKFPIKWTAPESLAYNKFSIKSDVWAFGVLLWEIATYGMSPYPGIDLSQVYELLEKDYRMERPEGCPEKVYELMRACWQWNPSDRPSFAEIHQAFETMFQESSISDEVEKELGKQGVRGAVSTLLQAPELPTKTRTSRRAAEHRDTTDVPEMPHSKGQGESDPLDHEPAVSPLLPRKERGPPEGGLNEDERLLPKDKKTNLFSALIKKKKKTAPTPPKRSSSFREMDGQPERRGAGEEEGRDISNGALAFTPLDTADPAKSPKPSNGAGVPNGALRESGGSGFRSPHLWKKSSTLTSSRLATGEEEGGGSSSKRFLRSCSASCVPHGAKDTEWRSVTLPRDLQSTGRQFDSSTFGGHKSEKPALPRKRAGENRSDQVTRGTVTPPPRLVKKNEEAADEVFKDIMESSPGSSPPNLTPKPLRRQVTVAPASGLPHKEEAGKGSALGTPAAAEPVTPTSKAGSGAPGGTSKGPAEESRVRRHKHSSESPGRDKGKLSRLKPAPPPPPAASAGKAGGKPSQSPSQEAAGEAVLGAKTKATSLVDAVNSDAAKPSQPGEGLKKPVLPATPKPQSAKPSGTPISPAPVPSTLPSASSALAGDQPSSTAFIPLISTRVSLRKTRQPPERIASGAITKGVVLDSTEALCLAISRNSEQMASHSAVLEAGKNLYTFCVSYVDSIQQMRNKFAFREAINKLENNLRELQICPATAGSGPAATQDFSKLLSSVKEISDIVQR

As a reminder, the Ki is a dissociation constant, usually derived from enzyme kinetics or from competition with a known ligand. The compound `CCCCNc1ncnc2c1cnn2CC(Cl)c1ccccc1` (configuration not stated) gave a Ki in experiment [1] of 2 µM.
The IC50 is the concentration at which inhibition is half-maximal. A lower IC50 goes with greater potency. The compound `ClC(Cn1ncc2c(NCc3ccccc3)ncnc21)c1ccccc1` (configuration not stated) had an IC50 in experiment [2] of 1 µM.

These data come from ChEMBL document CHEMBL4616589, “Exploring structure-promiscuity relationships using dual-site promiscuity cliffs and corresponding single-site analogs” (Bioorg Med Chem, 2020).
